Assay results as given in ChEMBL document CHEMBL3526033, “Identification of human liver cytochrome P450 enzymes involved in the metabolism of SCH 530348 (Vorapaxar), a potent oral thrombin protease-activated receptor 1 antagonist” (Drug Metab Dispos, 2011).
Blank lines part the entries; values can stand above or below the molecule they belong to.

Legend:
Type in all cases: ADME
[1] = target: Cytochrome P450 4A11 (Homo sapiens, UniProt Q02928); test: Activity of human recombinant CYP4A11 assessed as enzyme-mediated 2-hydroxyethyl (1R,3aR,4aR,6R,8aR,9S,9aS)-9-((E)-2-(5-(3-fluorophenyl)pyridin-2-yl)vinyl)-1-methyl-3-oxododecahydronaphtho[2,3-c]furan-6-ylcarbamate formation at 25 uM after 120 mins by LC-MS/MS analysis in presence of NADPH; details: 2 h
Cytochrome P450 4A11, sequence (Q02928 whole entry): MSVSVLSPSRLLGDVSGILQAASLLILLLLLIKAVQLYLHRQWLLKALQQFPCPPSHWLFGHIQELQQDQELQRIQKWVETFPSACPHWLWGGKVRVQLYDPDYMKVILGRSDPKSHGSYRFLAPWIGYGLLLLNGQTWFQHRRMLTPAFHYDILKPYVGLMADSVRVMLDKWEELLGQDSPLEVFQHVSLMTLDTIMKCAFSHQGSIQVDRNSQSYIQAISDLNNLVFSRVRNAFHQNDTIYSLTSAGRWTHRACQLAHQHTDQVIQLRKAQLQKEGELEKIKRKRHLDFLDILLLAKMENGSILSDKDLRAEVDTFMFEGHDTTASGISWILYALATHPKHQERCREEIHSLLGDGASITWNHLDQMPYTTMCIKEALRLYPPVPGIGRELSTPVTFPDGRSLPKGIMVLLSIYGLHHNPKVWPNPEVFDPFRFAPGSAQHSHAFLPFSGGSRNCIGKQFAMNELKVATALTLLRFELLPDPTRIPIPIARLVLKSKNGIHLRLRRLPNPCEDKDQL

[2] = target: T1, Cytochrome P450 1A2 (Homo sapiens, UniProt P05177); test: Activity of human recombinant CYP1A2 assessed as enzyme-mediated 2-hydroxyethyl (1R,3aR,4aR,6R,8aR,9S,9aS)-9-((E)-2-(5-(3-fluorophenyl)pyridin-2-yl)vinyl)-1-methyl-3-oxododecahydronaphtho[2,3-c]furan-6-ylcarbamate formation at 25 uM after 120 mins by LC-MS/MS analysis in presence of NADPH; details: 2 h
T1 sequence (P05177 whole entry): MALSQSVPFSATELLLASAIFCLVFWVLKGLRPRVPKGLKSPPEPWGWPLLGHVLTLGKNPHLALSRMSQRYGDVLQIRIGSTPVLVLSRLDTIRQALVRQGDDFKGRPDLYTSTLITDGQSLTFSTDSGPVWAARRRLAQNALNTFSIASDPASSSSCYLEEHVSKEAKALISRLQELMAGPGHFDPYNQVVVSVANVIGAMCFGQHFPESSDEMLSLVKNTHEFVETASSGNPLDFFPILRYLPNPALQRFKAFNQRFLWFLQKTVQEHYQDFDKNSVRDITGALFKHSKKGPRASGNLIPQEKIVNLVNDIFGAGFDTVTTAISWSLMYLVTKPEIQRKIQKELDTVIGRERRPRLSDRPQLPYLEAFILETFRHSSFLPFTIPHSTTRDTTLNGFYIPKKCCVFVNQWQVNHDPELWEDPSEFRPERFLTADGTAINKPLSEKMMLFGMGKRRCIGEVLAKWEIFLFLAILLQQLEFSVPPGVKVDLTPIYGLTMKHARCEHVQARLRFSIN

[3] = target: Cytochrome P450 2E1 (Homo sapiens, UniProt P05181); test: Activity of human recombinant CYP2E1 assessed as enzyme-mediated 2-hydroxyethyl (1R,3aR,4aR,6R,8aR,9S,9aS)-9-((E)-2-(5-(3-fluorophenyl)pyridin-2-yl)vinyl)-1-methyl-3-oxododecahydronaphtho[2,3-c]furan-6-ylcarbamate formation at 25 uM after 120 mins by LC-MS/MS analysis in presence of NADPH; details: 2 h
Cytochrome P450 2E1, sequence (P05181 whole entry): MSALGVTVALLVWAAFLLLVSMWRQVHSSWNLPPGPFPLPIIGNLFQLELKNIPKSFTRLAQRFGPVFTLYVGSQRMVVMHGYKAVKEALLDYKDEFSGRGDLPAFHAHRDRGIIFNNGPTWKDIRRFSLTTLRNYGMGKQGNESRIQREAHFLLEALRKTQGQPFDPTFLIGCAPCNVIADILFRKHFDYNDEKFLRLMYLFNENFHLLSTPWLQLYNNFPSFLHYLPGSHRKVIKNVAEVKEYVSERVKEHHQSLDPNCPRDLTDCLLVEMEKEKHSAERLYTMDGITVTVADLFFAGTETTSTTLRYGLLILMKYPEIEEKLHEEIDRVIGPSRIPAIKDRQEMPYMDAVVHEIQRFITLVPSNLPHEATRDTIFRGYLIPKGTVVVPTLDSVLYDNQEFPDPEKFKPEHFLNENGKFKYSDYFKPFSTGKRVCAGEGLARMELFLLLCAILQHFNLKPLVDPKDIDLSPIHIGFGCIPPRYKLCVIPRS

[4] = target: Cytochrome P450 2D6 (Homo sapiens, UniProt P10635); test: Activity of human recombinant CYP2D6 assessed as enzyme-mediated drug metabolism at 10 uM after 120 mins by LC-MS/MS analysis; details: 2 h
Cytochrome P450 2D6, sequence (P10635 whole entry): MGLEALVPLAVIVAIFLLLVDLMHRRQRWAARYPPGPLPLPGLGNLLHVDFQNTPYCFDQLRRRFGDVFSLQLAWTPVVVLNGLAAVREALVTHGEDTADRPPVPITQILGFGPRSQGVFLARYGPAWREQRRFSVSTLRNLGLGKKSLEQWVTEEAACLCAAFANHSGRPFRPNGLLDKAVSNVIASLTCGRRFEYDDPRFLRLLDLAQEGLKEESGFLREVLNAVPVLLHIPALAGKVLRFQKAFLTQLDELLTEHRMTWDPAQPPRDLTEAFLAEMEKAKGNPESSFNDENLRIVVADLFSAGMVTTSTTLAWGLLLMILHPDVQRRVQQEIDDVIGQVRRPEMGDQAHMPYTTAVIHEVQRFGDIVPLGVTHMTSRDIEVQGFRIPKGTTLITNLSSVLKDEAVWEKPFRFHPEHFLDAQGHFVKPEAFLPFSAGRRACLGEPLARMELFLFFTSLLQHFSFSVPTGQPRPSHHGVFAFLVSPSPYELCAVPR

[5] = target: Cytochrome P450 3A5 (Homo sapiens, UniProt P20815); test: Activity of human recombinant CYP3A5 assessed as enzyme-mediated 2-hydroxyethyl (1R,3aR,4aR,6R,8aR,9S,9aS)-9-((E)-2-(5-(3-fluorophenyl)pyridin-2-yl)vinyl)-1-methyl-3-oxododecahydronaphtho[2,3-c]furan-6-ylcarbamate formation at 25 uM after 120 mins by LC-MS/MS analysis in presence of NADPH; details: 2 h
Cytochrome P450 3A5, sequence (P20815 whole entry): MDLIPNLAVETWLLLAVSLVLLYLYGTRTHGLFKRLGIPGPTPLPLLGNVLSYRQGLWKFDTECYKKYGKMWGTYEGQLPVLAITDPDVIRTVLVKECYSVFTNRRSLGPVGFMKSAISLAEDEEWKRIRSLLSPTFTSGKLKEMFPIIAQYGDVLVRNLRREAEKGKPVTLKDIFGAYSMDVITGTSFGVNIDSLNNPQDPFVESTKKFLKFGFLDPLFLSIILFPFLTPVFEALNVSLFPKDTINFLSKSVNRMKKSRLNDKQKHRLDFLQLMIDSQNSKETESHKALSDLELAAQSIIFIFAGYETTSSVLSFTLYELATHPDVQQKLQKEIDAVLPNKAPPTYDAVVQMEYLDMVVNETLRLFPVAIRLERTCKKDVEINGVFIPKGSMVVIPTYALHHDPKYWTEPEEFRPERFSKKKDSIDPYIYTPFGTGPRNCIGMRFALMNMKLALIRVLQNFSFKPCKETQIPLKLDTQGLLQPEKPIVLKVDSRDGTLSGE

[6] = target: T2, Cytochrome P450 2C9 (Homo sapiens, UniProt P11712); test: Activity of human recombinant CYP2C9 assessed as enzyme-mediated 2-hydroxyethyl (1R,3aR,4aR,6R,8aR,9S,9aS)-9-((E)-2-(5-(3-fluorophenyl)pyridin-2-yl)vinyl)-1-methyl-3-oxododecahydronaphtho[2,3-c]furan-6-ylcarbamate formation at 25 uM after 120 mins by LC-MS/MS analysis in presence of NADPH; details: 2 h
T2 sequence (P11712 whole entry): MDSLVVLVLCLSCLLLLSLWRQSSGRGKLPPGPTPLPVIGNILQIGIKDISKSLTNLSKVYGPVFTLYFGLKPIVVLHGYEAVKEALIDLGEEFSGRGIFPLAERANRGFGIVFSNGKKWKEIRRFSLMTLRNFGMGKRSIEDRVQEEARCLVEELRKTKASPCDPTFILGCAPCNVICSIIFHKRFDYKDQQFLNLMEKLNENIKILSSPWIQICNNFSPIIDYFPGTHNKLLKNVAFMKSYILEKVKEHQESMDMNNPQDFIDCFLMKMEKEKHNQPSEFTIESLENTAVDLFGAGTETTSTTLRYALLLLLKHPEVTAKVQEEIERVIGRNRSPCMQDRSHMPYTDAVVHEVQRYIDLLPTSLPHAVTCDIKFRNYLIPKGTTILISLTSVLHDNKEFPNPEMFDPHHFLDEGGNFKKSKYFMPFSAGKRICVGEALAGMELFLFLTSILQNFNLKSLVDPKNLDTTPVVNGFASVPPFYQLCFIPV

[7] = target: T3, Cytochrome P450 4F3 (Homo sapiens, UniProt Q08477); test: Activity of human recombinant CYP4F3A assessed as enzyme-mediated drug metabolism treated with 25 uM vorapaxar after 120 mins by LC-MS/MS analysis in presence of NADPH; details: 2 h
T3 sequence (Q08477 whole entry): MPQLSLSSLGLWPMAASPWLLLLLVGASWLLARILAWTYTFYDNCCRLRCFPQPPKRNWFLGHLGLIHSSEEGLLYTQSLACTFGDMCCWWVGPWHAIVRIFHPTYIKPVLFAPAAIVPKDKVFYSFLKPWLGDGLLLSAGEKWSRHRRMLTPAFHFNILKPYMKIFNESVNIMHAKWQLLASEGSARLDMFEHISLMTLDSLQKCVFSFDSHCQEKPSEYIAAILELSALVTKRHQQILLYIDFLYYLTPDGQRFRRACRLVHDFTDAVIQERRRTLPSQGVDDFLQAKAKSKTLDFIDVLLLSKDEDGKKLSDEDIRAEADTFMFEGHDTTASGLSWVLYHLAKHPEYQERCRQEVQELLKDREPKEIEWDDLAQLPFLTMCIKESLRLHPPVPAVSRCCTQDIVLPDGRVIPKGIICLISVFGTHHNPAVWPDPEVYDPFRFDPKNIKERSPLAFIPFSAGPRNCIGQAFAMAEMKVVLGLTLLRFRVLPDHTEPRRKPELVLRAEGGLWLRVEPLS

[8] = target: T2, Cytochrome P450 2C9; test: Activity of human recombinant CYP2C9 assessed as enzyme-mediated drug metabolism treated with 25 uM vorapaxar after 120 mins by LC-MS/MS analysis in presence of NADPH; details: 2 h
[9] = target: Cytochrome P450 3A4 (Homo sapiens, UniProt P08684); test: Drug metabolism in human liver microsomes assessed as CYP3A4-mediated (3R,3aS,4S,4aR,7R,8aR,9aR)-7-amino-4-((E)-2-(5-(3-fluorophenyl)pyridin-2-yl)vinyl)-3-methyldecahydronaphtho[2,3-c]furan-1(3H)-one formation at 25 uM after 120 mins by LC-MS/MS analysis; details: 2 h
Cytochrome P450 3A4, sequence (P08684 whole entry): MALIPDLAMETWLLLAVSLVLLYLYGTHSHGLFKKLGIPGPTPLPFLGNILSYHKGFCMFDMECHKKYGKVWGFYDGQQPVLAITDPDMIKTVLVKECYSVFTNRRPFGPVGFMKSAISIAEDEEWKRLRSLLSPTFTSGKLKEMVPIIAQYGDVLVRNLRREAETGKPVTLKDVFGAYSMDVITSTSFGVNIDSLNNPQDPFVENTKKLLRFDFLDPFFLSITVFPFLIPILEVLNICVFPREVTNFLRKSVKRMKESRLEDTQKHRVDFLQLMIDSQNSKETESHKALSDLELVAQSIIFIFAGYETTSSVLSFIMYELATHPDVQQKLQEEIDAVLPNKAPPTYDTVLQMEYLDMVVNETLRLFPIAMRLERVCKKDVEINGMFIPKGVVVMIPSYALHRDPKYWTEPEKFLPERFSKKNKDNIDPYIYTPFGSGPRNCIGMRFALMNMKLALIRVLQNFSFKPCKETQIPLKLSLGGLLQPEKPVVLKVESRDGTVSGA

[10] = tested on: Liver microsome; test: (§1) Drug metabolism in human liver microsomes assessed as (3R,3aS,4S,4aR,7R,8aR,9aR)-7-amino-4-((E)-2-(5-(3-fluorophenyl)pyridin-2-yl)vinyl)-3-methyldecahydronaphtho[2,3-c]furan-1(3H)-one formation at 10 to 25 uM after 120 mins by LC-MS/MS analysis in presence of CYP2B6-specific inhibitory antibody; details: 2 h
[11] = tested on: Liver microsome; test: as §1, with “CYP3A4-specific” for “CYP2B6-specific”, “inhibitory monoclonal” for “inhibitory”; details: 2 h
[12] = Drug metabolism in human liver microsomes assessed as compound remaining at 10 uM after 120 mins by LC-MS/MS analysis in presence of NADPH; details: read-out: Compound recovery
[13] = Drug metabolism in human intestine microsomes assessed as 2-hydroxyethyl (1R,3aR,4aR,6R,8aR,9S,9aS)-9-((E)-2-(5-(3-fluorophenyl)pyridin-2-yl)vinyl)-1-methyl-3-oxododecahydronaphtho[2,3-c]furan-6-ylcarbamate formation at 25 uM after 120 mins by LC-MS/MS analysis in presence of NADPH; details: 2 h
[14] = target: CYP2C19 (Homo sapiens, UniProt P33261); test: Activity of human recombinant CYP2C19 assessed as enzyme-mediated drug metabolism at 10 uM after 120 mins by LC-MS/MS analysis in presence of NADPH; details: read-out: Compound recovery
CYP2C19, sequence (P33261 whole entry): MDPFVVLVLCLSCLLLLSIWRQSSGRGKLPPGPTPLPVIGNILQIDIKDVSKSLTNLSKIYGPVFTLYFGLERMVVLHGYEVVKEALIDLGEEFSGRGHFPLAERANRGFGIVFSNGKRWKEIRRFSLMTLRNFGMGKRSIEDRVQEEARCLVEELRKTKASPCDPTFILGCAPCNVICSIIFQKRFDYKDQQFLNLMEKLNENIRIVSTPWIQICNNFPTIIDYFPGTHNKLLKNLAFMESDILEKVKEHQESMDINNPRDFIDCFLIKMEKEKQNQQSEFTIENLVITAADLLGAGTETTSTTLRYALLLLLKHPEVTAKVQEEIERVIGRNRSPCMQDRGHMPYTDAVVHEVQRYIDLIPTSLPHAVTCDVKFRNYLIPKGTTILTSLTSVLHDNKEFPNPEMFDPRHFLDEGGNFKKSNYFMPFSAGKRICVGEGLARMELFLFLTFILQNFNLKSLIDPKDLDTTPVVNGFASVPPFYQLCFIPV

Drug metabolism [1]: metabolite_detected
Drug metabolism [2]: metabolite_detected
Drug metabolism [3]: metabolite_detected
Drug metabolism [4]: metabolite_not_detected
Drug metabolism [5]: metabolite_detected
Drug metabolism [6]: metabolite_detected
SMILES: CCOC(=O)N[C@@H]1CC[C@@H]2[C@@H](C1)C[C@H]1C(=O)O[C@H](C)[C@H]1[C@H]2/C=[14CH]/c1ccc(-c2cccc(F)c2)cn1

Drug metabolism [7]: metabolite_detected
Drug metabolism [8]: metabolite_detected
Drug metabolism [9]: metabolite_detected
SMILES: C[C@H]1OC(=O)[C@@H]2C[C@@H]3C[C@H](NC(=O)OCCO)CC[C@H]3[C@H](/C=C/c3ccc(-c4cccc(F)c4)cn3)[C@H]12

Drug metabolism [10]: metabolite_detected
Drug metabolism [11]: metabolite_not_detected
remaining at 2 h, 10 µM [12]: 92.7%
Drug metabolism [13]: metabolite_detected
remaining at 2 h, 10 µM [14]: 94.1%
SMILES: CCOC(=O)N[C@@H]1CC[C@@H]2[C@@H](C1)C[C@H]1C(=O)O[C@H](C)[C@H]1[C@H]2/C=C/c1ccc(-c2cccc(F)c2)cn1 [VORAPAXAR]
